The target of series [1] is T1, α-syn (Homo sapiens, UniProt P37840). As to the kind of experiment: Western blot (anti-oligo A11, anti-α-syn) of uncross-linked α-syn. The conditions noted are these: compound 600 μM, α-syn 60 μM, 37° C., 24 hours. Format: biochemical. As to the method: To validate the PICUP results, the uncross linked α-syn (produced in Dr. Rochet lab) was incubated at a final concentration of 60 μM in 10 mM phosphate buffer (pH 7.4) with the presence of vehicle (1.5% DMSO), the amide compounds of interest (Compounds 2, 8, 17), and the weak anti-fibrillization inhibitor (compound 13). Compounds were tested at a final concentration of 600 μM (molar ratio 1:10). Samples were incubated for 24 h and 48 h with constant shaking 300 rpm at 37° C. (VWR Thermal Shake Touch, Troemner, LLC, Thorofare, NJ). After completion of the incubation time, samples were mixed with one third volume of above-mentioned loading buffer and separated by electrophoresis in a 16% SDS-Page gel. […] Nitrocellulose membranes were exposed to the monoclonal antibodies diluted at 1/1000 using a 5% non-fat dried milk with TBS and 0.1% Tween-20 (TBS-T) for 12 h at 4° C. Peroxidase conjugated secondary antibodies consisted of an anti-rabbit (Rockland Immunochemicals, inc., Pottstown, PA, cat. #611-1322-0100) and an anti-mouse (Rockland, cat. #610-1319-0100) utilized at a dilution of 1/5000 in 5% non-fat dried milk with TBS-T for one hour at room temperature. The membranes were then exposed to a 1:1 ratio of enhanced chemiluminescent solution (Thermo Scientific, Rockford, IL, cat. #32209) for one minute before the acquisition of images using a SynGene G;Box scanner (model Chemi XR 5 and the G:Box Chemi-XRQ GENESYS software.
One limitation of the PICUP is the generation of free radicals which can be quenched by aromatic compounds resulting in false positives. For this reason, results obtained by PICUP were validated using the uncross-linked α-syn. High concentration of different compounds (600 μM; molar ratio of 1:10) were incubated at 37° C. for 24 hours with 60 μM of α-syn and separated by electrophoresis in 16% SDS-PAGE gels. Western blots using polyclonal anti-oligo A11 and monoclonal anti-α-syn were assessed to detect the high molecular weight oligomers and monomeric α-syn, respectively.
For orientation: Immunoblotting shows a protein as a band on a membrane.

Series [2] concerns the target T1, α-syn. As to the kind of experiment: Transmission electron microscopy of α-syn fibrils. Format: biochemical. To be noted: 60 μM α-syn: 600 μM compound, 24-hours exposure. The protocol: (§1) For the examination of ultrastructural changes, 60 μM of proteins (α-syn and tau isoform 2N4R) in contact with DMSO or 600 μM of compound were incubated in a 10 mM PBS buffer (pH 7.4) for 24 h at 37° C. (molar ratio 1:10). Samples at the end of tau ThT kinetics of fibril formation were also analyzed at similar molar ratio with 6 time less concentrated samples. For the preparation of grids prior examination, a volume of 10 μL if each sample was applied on a 400-mesh Formvar-carbon-coated copper grid (Electron Microscopy Sciences, Hatfield, PA). The grids were incubated for 1 minute with the sample and after washed three times with distilled water, After being air-dried, a fresh solution of 1% uranyl acetate was applied for 1 minute. Solution was absorbed with filter paper and grids were air-dried. Evaluation of grids were performed using a transmission microscope (JEOL 1400 Flash, Japan). Transmission electron micrographs were captured using an accelerating voltage of 100 kV and magnification of 40 k.
(§2) To confirm that the reduction of ThT fluorescence observed with compounds 2, 8, and 17 was due to the reduction in protein fibrillization rather than interference with ThT [31], transmission electron microscopy (TEM) of α-syn and tau isoform 2N4R with these same compounds was utilized to visualize direct changes in α-syn and tau isoform 2N4R fibril morphology after 24-hours exposure (FIG. 5). […] Results were reproduced using the tau isoform 2N4R and different compounds at the above-mentioned higher concentrations using the identical molar ratio and incubation time. […] Compound 2 was the only candidate resulting in a grid quasi exempt of fibrils.

A further series concerns the target T2, tau isoform 2N4R (Homo sapiens, UniProt P10636).
T2 construct: made in house; host or cells: E. coli BL21 (DE3), vector pRK172
The series is described as follows: Transmission electron microscopy of tau isoform 2N4R fibrils. The class given is biochemical. The conditions noted are these: compound 100 μM, 50-hours exposure; reproduced at higher concentrations, molar ratio 1:10. As to the method:
as §1, §2

Series [3] relates to M17D-TR/αS-3K::YFP neuroblastoma cells. As to the kind of experiment: α-Syn inclusion assay in dox-inducible neuroblastoma cells. Format: cell-based. To be noted: for reduction of inclusions: lower concentrations (below 40 μM). As to the method: Dox-inducible neuroblastoma cells M17D-TR/αS-3K::YFP were used according to the published experimental procedure. For this cell-based assay, the cellular density consisted of 30,000 cells per well in a 96-well plate format. After 24 h of seeding the plates, compounds were introduced at ranging concentrations of 5 to 40 μM for a period of 24 h. After, the induction of the αS-3K::YFP transgene expression was initiated by adding dox (1 ug per mL, final concentration in culture media). Cells were incubated in the Incucyte Zoom 2000 platform (Essen Biosciences), where the acquisition of images (green, bright field) occurred continuously. After 48 hours of induction, inclusion formation and cell growth were assessed. To determine the level of different proteins by western blotting, α-syn monoclonal antibody 41312 (Thermofisher, Waltham, MA; 1:1000) and GAPDH polyclonal antibody (Sigma-Aldrich, St. Louis, MO, G9545; 1:5000) were used.
To evaluate the effects of compounds on inclusion formation and cell survival, M17D neuroblastoma cells that express an α-syn-derived αS-3K::YFP fusion protein in a doxycycline-inducible fashion were used. The cells were treated with 0.1% DMSO (control) and compounds 13, 2, 8, and 17 at various concentrations at t=24 hrs. Cells were induced with dox at t=48 hours. Punctate YFP signals were measured and normalized to 0.1% DMSO at t=96 hours. Eight independent experiments (N=8; n=14; except DMSO, n=30) were performed. The familial PD-linked α-syn missense mutation E46K is amplified by α-syn E35K+E46K+E61K (=αS3K), which results in round cytoplasmic α-syn-based inclusions in cultured cells. αS3K expression is responsible for cell stress/toxicity and delayed growth of neuroblastoma cells. […] Therefore, this assay was selected to evaluate the effect of the compound 13, as a weak to non-inhibitor of aggregation, and the three best anti-aggregation inhibitors, namely compounds 2, 8, and 17 (FIG. 6). […] Western blot analyses for total α-syn, normalized to calnexin (loading control), were performed to determine the compound effect on α-syn protein level due to degradation or non-specific effect on transgene expression.

Entries after “also recorded” stand apart in the source; their conditions may differ.

T2 sequence (P10636 1-441 isoform P10636-8): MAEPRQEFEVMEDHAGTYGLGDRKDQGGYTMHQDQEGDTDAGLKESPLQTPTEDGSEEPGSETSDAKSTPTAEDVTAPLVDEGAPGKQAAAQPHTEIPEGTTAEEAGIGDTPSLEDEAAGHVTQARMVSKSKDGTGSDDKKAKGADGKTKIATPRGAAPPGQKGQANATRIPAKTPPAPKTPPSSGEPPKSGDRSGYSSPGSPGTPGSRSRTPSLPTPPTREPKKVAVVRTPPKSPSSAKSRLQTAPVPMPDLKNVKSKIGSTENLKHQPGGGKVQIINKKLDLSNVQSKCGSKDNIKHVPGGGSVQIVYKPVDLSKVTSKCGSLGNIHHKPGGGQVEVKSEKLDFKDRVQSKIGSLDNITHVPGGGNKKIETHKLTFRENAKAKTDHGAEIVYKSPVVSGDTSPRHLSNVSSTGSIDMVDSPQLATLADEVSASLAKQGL

With `O=C(Nc1cccc2[nH]ccc12)c1ccccc1` [Compound 2, N-(1H-indol-4-yl)benzamide], at α-syn [1], the “oligomeric species bands of uncross-linked α-syn (Western blot)” value (“oligomeric species bands” below) is given as “narrow, less intense bands compared to control”. Moreover, the “α-syn fibril morphology (TEM)” value at α-syn [2] is on record as “clear effect in reducing α-syn fibrillization”. In addition, at tau isoform 2N4R, the “tau isoform 2N4R fibril morphology (TEM)” value was “levels of tau fibril at 20 μM were reduced; also recorded: Fewer and not well-defined fibrils”. Further, the reduction of inclusions result in series [3] is on record as “None of these compounds exhibited a significant reduction of inclusions”.

For `O=C(Nc1cccc2[nH]ccc12)c1ccc(F)cc1` [Compound 8, 4-fluoro-N-(1H-indol-4-yl)benzamide], the “oligomeric species bands” value at α-syn [1] is on record as “narrow, less intense bands compared to control”. For the same molecule, at α-syn [2], the “α-syn fibril morphology (TEM)” value is “clear effect in reducing α-syn fibrillization; also recorded: most drastic effect, with immature fibrils surrounded by irregular globular structures”. On tau isoform 2N4R, the “tau isoform 2N4R fibril morphology (TEM)” value was “levels of tau fibril at 20 μM were reduced”. The “toxicity (confluence)” value in series [3] (40 μM) is listed as “small degree of toxicity”. The inclusion formation entry in series [3] (40 μM, M17D αS3K cells) is on record as “reduced inclusion formation”. For the same molecule, the “α-syn protein level (Western blot)” value in series [3] (low concentration (5-10 μM) only) is “reduced α-syn levels”. The reduction of inclusions entry in series [3] is “None of these compounds exhibited a significant reduction of inclusions”.

Turning to `O=C(Nc1ccc2[nH]ccc2c1)c1ccccc1Cl` [Compound 13, 2-chloro-N-(1H-indol-5-yl)benzamide], at α-syn [1], the “oligomeric species bands” value was “did not reduce the intensity of the bands”. Also, the “α-syn fibril morphology (TEM)” value at α-syn [2] is on record as “mature fibrils after 24 hours”. In addition, on tau isoform 2N4R, the “tau isoform 2N4R fibril morphology (TEM)” value is “long fibrils admixed with amorphous materials and/or debris”. Also, the reduction of inclusions result in series [3] is “None of these compounds exhibited a significant reduction of inclusions”.
